Experimental data published in US20150141349A1, “Method and Composition for Alleviating Tumor Symptoms” (Angiogene Pharmaceuticals Ltd., priority 2012, published 2015).
Several values for one entry are separate records, joined by “and”; a condition that tells them apart may be missing. Identical values can stand only once.

Assays:
[1] = system: GH3 pituitary tumor cells; assay: Tumor necrosis in GH3 tumors (prolactinomas) after CA4P (H&E histology, image analysis); type: in vivo, rat
Procedure: (§1) Eighteen female Wistar Furth rats (Charles River, France), weighing approximately 130-140 g, were inoculated subcutaneously in the flanks with 1×10^6 GH3 pituitary tumor cells. Tumors were typically used for experimentation when they reached approximately 1 cm in diameter, or 300-1000 mm^3. Blood was taken from the tail vein of each rat 24 h before treatment with 100 mg/kg of vascular disrupting agent, CA4P, formulated in 20% of 5% aqueous sodium bicarbonate in 80% phosphate buffered saline. The CA4P was administered as a bolus injection through the tail vein. 24 h or 48 h after treatment a further blood sample was taken from the tail vein and the rats euthanized. Tumors were excised, fixed in formalin and stained with H&E for histology. Necrosis was determined by image analysis (Image J).

[2] = system: Pancreatic Endocrine Tumors; assay: Serum insulin (ELISA) in Pdx1-Cre:Men1floxed/floxed mice treated with CA4P; type: in vivo
Procedure: Eight Pdx1-Cre:Men1floxed/floxed mice (described in Shen et al. Cancer Res. 2009, 69(5):1858-66) were divided into treated group (n=4) and control group (n=4). In an ongoing experiment, the mice from the treated group and control group were injected i.p. daily with CA4P (100 mg/kg) and saline, respectively, for three days monthly. The mice underwent a 24 h fast prior to collecting whole blood via a retro-orbital bleeding technique weekly at pre- and post-treatment. Glucose levels were monitored by enzymatic colorimetric assay. All mice underwent a microPET/CT scan monthly. Anti-tumor activity was measured by standardized-uptake value (SUV) analysis. All mice were weighed three times per week as an indicator of toxicity.

[3] = system: GH3 pituitary tumor cells; assay: Prolactin and growth hormone (ELISA) in GH3 tumor-bearing rats treated with CA4P; type: in vivo, rat; set-up: tumor GH pre- / tumor GH post-: unit not given beside the values; settings: for Growth Hormone tumor-derived: historical background 46 ng/ml subtracted; for Prolactin tumor-derived: historical basal level 26 ng/ml subtracted; for GH % decrease: tumor-derived GH
Procedure: as §1
Prolactin and growth hormone were measured using commercial ELISA's (SPI/BIO Bertin Pharma/Cayman kits sourced from Bioquote Limited, York, UK). Tumor-derived prolactin levels were calculated assuming a historical basal level of 26 ng/ml. […] Tumor-derived growth hormone levels were calculated by subtracting a historical value for background growth hormone of 46 ng/ml. […] All measurements for the control group were performed 24 hours after injection of saline.

carcinoid metastases = settings: compared with 55% for hepatic artery embolization; cited from earlier work
neuroendocrine tumor = settings: prolonged treatment, in combination with octreotide (Yao et al. 2008); cited from earlier work
[4] = system: GH3 pituitary tumor cells; assay: Tumor necrosis in GH3 rat pituitary tumors after ZD6126 (H&E histology, image analysis); type: in vivo; settings: individual rats; 24 h after 50 mg/kg ZD6126 bolus tail vein
Procedure: (§2) Four female Wistar Furth rats, weighing approximately 160 g, were inoculated subcutaneously in the flanks with GH3 pituitary tumor cells. Tumors were typically used for experimentation when they reached approximately 1000-3000 mm^3. Blood was taken from the tail vein of each rat 24 h before treatment with 50 mg/kg of vascular disrupting agent, ZD6126, formulated in 20% of 5% aqueous sodium bicarbonate in 80% phosphate buffered saline. The vascular disrupting agent was administered as a bolus injection through the tail vein. 24 h after treatment a further blood sample was taken from the tail vein and the rats euthanized. Tumors were excised, fixed in formalin and stained with H&E for histology. Necrosis was determined by image analysis (Image J). Blood samples were analyzed for prolactin and growth hormone at by ELISA using kits supplied by SPIbio.

[5] = system: GH3 pituitary tumor cells; assay: Circulating growth hormone and prolactin (ELISA) in GH3 tumor-bearing rats treated with ZD6126; type: in vivo, rat; set-up: Growth Hormone pre / Growth Hormone post / Prolactin pre / Prolactin post: unit not given beside the values
Procedure: as §2
Since control animals had significant levels of both hormones (within the normal range) and since the VDA could not be expected to reduce normal host hormone production it might be reasonable to subtract a figure from each reading to allow for the persisting host-derived hormone. Although data on normal hormone levels were derived from a single control (non-tumor bearing) animal, the values are very much in agreement with those reported in the literature. Subtracting this value would give a rough estimate of the reduction in rats 1 and 2 of tumor-derived growth hormone of 72% and 40% and a reduction in tumor-derived prolactin of 65% and 33% respectively.

[6] = 24 h after 100 mg/kg CA4P, individual rats
[7] = 48 h after 100 mg/kg CA4P, individual rats
[8] = 24 h after 50 mg/kg ZD6126, individual rats, ±SD
[9] = baseline, blood 24 h before ZD6126 treatment, individual rats, ±SD
[10] = pre vs 24 h after 50 mg/kg ZD6126, individual rats
[11] = rats 1 and 2, rough estimate after subtracting value of tumor-free control

COc1ccc(/C=C\c2cc(OC)c(OC)c(OC)c2)cc1OP(=O)(O)O [CA4P, combretastatin A-4 phosphate]
% tumor necrosis ([1]; 24 h after 100 mg/kg CA4P, group mean): 43.7 ± 29.6% | % tumor necrosis [1, 6]: 83% and 58% and 3% and 59% (2×) | % tumor necrosis ([1]; 48 h after 100 mg/kg CA4P, group mean): 61.7 ± 27.4% | % tumor necrosis [1, 7]: 77% and 30% | Serum Insulin ([2]; Day 0 (baseline), CA4P group n=4, P vs PBS 0.6720): 3.695 ± 0.669 µg/L | Serum Insulin ([2]; Day 4, CA4P 100 mg/kg i.p. daily for three days, 24 h fast, P vs PBS 0.3699): 3.060 ± 1.037 µg/L | Serum Insulin ([2]; Day 11, CA4P 100 mg/kg i.p. daily for three days, 24 h fast, P vs PBS 0.0350): 2.495 ± 0.8722 µg/L | Prolactin total ([3]; 24 h after 100 mg/kg CA4P bolus tail vein, n=6): 64.6 ± 19.1 ng/ml ± SD | Growth Hormone tumor-derived ([3]; 24 h after 100 mg/kg CA4P, n=6): 29.1 ± 13.6 ng/ml ± SD | Prolactin tumor-derived ([3]; 24 h after 100 mg/kg CA4P, n=6): 38.6 ± 19.1 ng/ml ± SD | tumor GH post- [3, 6]: 15.8 and 29.1 and 48.4 and 19.2 and 42.4 | GH % decrease [3, 6]: 63.2% and 36.0% and 21.6% and 50.0% and 6.2% | Growth Hormone total ([3]; 24 h after 100 mg/kg CA4P, n=6): 75.1 ± 13.6 ng/ml ± SD | Growth Hormone tumor-derived ([3]; 48 h after 100 mg/kg CA4P, n=2): 20.8 ± 7.8 ng/ml ± SD | Prolactin tumor-derived ([3]; 48 h after 100 mg/kg CA4P, n=2): 28.3 ± 20.2 ng/ml ± SD | tumor GH post- [3, 7]: 15.3 and 26.3 | GH % decrease [3, 7]: 64.1% and 35.2% | Growth Hormone total ([3]; 48 h after 100 mg/kg CA4P, n=2): 66.8 ± 7.8 ng/ml ± SD | Prolactin total ([3]; 48 h after 100 mg/kg CA4P, n=2): 54.3 ± 20.2 ng/ml ± SD | tumor GH pre- ([3]; baseline before CA4P, individual rats, tumor-derived growth hormone): 42.9 and 45.5 and 61.7 and 38.4 and 45.2 and 42.6 and 40.6 | total and tumor-derived growth hormone after treatment (in words) ([3]; p<0.03, one-tailed t-test): statistically lower amount | total and tumor-derived prolactin after treatment (in words) ([3]; p<0.04, one-tailed T-test): statistically lower amount

CNC(=O)c1cc(Oc2ccc(NC(=O)Nc3ccc(Cl)c(C(F)(F)F)c3)cc2)ccn1 [sorafenib]
response rate (Phase II trials) (carcinoid metastases): 10%

bevacizumab: anti-VEGF antibody
response rate (Phase II trials) (carcinoid metastases): 18% | neuroendocrine tumor patients achieving a meaningful reduction in urinary 5-HIAA (neuroendocrine tumor): 19% | patients achieving a reduction in plasma levels of chromogranin A (neuroendocrine tumor): 6%

COc1cc2c(c(OC)c1OC)-c1ccc(OP(=O)(O)O)cc1[C@@H](NC(C)=O)CC2 [ZD6126]
% necr. (tumor necrosis) [4]: 39% and 42% and little or no necrosis and 0% | Growth Hormone post [5, 8]: 91 ± 7 and 102 ± 4 and 204 ± 14 and 171 ± 11 | Prolactin post [5, 8]: 90 ± 2 and 78 ± 3 and 129 ± 5 and 52 ± 1 | Growth Hormone pre [5, 9]: 214 ± 11 and 139 ± 8 and 193 ± 4 and 146 ± 4 | Prolactin pre [5, 9]: 211 ± 28 and 104 ± 3 and 134 ± 17 and 53 ± 3 | Growth Hormone Δ (percent reduction) [5, 10]: 57 and 26 and −5 and −16 | Prolactin Δ (percent reduction) [5, 10]: 57 and 24 and 4 and 1 | reduction in tumor-derived prolactin [5, 11]: ~65% and ~33% | reduction of tumor-derived growth hormone [5, 11]: ~72% and ~40%

COc1cc2ncnc(Nc3ccc(F)c(Cl)c3)c2cc1OCCCN1CCOCC1 [gefitinib]
response rate (Phase II trials) (carcinoid metastases): 2%

Cc1ccc(NC(=O)c2ccc(CN3CCN(C)CC3)cc2)cc1Nc1nccc(-c2cccnc2)n1 [imatinib]
response rate (Phase II trials) (carcinoid metastases): 4%

CO[C@H]1C[C@@H]2CC[C@@H](C)[C@@](O)(O2)C(=O)C(=O)N2CCCC[C@H]2C(=O)O[C@H]([C@H](C)C[C@@H]2CC[C@@H](OCCO)[C@H](OC)C2)CC(=O)[C@H](C)/C=C(\C)[C@@H](O)[C@@H](OC)C(=O)[C@H](C)C[C@H](C)/C=C/C=C/C=C/1C [everolimus]
response rate (Phase II trials) (carcinoid metastases): 13%

Clc1ccc(Nc2nnc(Cc3ccncc3)c3ccccc23)cc1 [valatinib]
response rate (Phase II trials) (carcinoid metastases): 0%
